Data published in patent US20090274731A1, “PRODUCTION OF ENVELOPED PHARMACEUTICAL DOSAGE FORMS” (ABBOTT GMBH & CO. KG, priority 2006, published 2009).

Assay: Relative solubility of paracetamol in the release media
Type: physicochemical
Conditions: in 20% ethanol compared with 0.01 M HCl; in words

solubility: distinctly more soluble
SMILES: CC(=O)Nc1ccc(O)cc1 [paracetamol]
